# Patent US11919901B2 (Syndax Pharmaceuticals, Inc., priority 2021, dated 2024)
# Columns and labels:
# Menin-MLL = Menin-MLL (Homo sapiens (Human), UniProt O00255); assay: Determination of binding constants (Ki) to Menin-MLL (HTRF); conditions: HTRF, 0.25 nM H-FL-Menin, 3.2 nM FITC-MLL-4-43, 24 hr incubation; for Ki: read-out: Menin-MLL Ki HTRF Assay: Ki
# hERG = hERG (Homo sapiens (Human), UniProt Q12809); assay: Patch clamp assay (hERG tail currents, whole-cell); assay type: cell-based; conditions: hERG transfected HEK 293 cells; for hERG % Remaining 10 μM: 10 μM compound; for hERG % Remaining 30 μM: 30 μM compound
# Sequence of hERG (Q12809 whole entry): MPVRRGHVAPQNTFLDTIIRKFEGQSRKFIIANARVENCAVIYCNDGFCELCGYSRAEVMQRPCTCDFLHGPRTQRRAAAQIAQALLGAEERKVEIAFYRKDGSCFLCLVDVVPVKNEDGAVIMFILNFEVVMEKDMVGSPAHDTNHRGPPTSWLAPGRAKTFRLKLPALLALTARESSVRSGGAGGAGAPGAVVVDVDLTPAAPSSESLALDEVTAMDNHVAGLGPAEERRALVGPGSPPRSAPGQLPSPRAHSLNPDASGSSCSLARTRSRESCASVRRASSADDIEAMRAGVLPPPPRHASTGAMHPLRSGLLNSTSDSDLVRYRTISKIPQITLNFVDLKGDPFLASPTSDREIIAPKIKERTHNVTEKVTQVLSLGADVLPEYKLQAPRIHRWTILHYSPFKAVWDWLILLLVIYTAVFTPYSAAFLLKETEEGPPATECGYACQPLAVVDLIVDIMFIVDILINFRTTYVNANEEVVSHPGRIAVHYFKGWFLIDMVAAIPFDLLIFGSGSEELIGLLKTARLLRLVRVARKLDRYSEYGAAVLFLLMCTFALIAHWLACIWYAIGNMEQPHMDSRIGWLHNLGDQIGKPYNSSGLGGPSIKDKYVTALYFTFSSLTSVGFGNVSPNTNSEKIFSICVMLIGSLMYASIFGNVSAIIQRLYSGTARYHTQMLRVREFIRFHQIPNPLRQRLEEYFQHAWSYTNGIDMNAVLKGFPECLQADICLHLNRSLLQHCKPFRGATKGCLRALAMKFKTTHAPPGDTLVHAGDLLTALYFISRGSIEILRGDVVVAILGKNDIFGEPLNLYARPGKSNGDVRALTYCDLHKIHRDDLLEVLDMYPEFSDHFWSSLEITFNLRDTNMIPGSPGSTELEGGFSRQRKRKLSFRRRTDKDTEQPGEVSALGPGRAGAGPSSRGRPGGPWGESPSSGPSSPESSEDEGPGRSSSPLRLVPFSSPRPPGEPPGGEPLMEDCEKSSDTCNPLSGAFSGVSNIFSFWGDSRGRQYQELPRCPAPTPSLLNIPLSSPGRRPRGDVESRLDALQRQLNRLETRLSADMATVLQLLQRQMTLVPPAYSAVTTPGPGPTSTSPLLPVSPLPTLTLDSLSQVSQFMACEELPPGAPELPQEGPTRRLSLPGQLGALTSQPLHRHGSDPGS
# Method: The 35 mm culture dishes upon which cells were seeded at a density allowing single cells to be recorded were placed on the dish holder of the microscope and continuously perfused (at approximately 1 mL/min) with the bath solution described in section 4.6. All solutions applied to cells including the pipette solution were maintained at room temperature (19° C. to 30° C.). After formation of a Gigaohm seal between the patch electrodes and individual hERG stably transfected HEK 293 cells (pipette resistance range: 2.0 MΩ2 to 7.0 MΩ; seal resistance range: >1GΩ) the cell membrane across the pipette tip was ruptured to assure electrical access to the cell interior (whole-cell patch-configuration). In case the quality of the seal was poor, the process of seal formation was repeated with a different cell and a new pipette. As soon as a stable seal could be established, hERG outward tail currents were measured upon depolarization of the cell membrane to +20 mV for 2s (activation of channels) from a holding potential of −80 mV and upon subsequent repolarization to −40 mV for 3 s. This voltage protocol (as shown below) was run at least 10 times at intervals of 10 s. If current density was judged to be too low for measurement, another cell was recorded.
# During wash-in of the test item the voltage protocol indicated above was run continuously again at 10 s intervals until the steady-state level of block was reached.
# The IC50 was determined by fitting the dose response curve with a 2-parameter logistic function (amax=100%).
# Sequence of Menin-MLL (O00255 whole entry): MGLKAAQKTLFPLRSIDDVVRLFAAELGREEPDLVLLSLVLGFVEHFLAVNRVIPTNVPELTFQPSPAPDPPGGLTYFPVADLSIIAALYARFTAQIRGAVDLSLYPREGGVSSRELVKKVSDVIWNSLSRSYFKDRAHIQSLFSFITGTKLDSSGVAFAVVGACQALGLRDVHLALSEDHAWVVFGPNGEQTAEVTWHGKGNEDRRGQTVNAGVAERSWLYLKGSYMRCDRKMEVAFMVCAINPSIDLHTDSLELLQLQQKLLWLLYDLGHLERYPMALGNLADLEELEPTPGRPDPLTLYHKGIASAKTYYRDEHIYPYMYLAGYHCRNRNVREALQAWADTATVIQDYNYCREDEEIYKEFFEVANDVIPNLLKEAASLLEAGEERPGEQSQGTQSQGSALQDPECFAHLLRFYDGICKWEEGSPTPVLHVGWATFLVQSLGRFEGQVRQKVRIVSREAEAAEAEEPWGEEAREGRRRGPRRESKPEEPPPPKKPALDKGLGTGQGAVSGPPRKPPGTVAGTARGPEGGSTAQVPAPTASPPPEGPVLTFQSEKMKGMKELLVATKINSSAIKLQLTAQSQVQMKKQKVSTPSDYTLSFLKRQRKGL
SMILES,Ki (Menin-MLL) [nM],hERG % Remaining 10 μM (hERG),hERG % Remaining 30 μM (hERG),IC50 (hERG) [µM],EC50 (Menin-MLL) [nM],hERG % Remaining 1 μM (hERG; 1 μM compound),hERG % Remaining 3 μM (hERG; 3 μM compound),hERG % Remaining 100 μM (hERG; 100 μM compound)
"CC(C)N(C(=O)c1cc(F)ccc1Oc1cncnc1N1CC2(CCN(C[C@@H]3CC[C@@H](NS(=O)(=O)c4cnn(C5CC5)c4)CO3)CC2)C1)C(C)C [Compound 83, 2-((4-(7-(((2S,5R)-5-((1-Cyclopropyl-1H-pyrazole)-4-sulfonamido)tetrahydro-2H-pyran-2-yl)methyl)-2,7-diazaspiro[3.5]nonan-2-yl)pyrimidin-5-yl)oxy)-5-fluoro-N,N-diisopropylbenzamide]",< 1,+++ (“+++” means ≥66%),++ (“++” means ≥33% and <66%),–,–,–,–,–
"Cc1ncc(S(=O)(=O)N[C@@H]2CC[C@@H](CN3CCC4(CC3)CN(c3ncncc3Oc3ccc(F)cc3C(=O)N(C(C)C)C(C)C)C4)OC2)s1 [Compound 84, 5-Fluoro-N,N-diisopropyl-2-((4-(7-(((2S,5R)-5-((2-methylthiazole)-5-sulfonamido)tetrahydro-2H-pyran-2-yl)methyl)-2,7-diazaspiro[3.5]nonan-2-yl)pyrimidin-5-yl)oxy)benzamide]",< 1,++ (“++” means ≥33% and <66%),+ (“+” means <33%),–,–,–,–,–
"CC(C)N(C(=O)c1cc(F)ccc1Oc1cncnc1N1CC2(CCN(C[C@@H]3CC[C@@H](NS(=O)(=O)c4cnn(C(F)F)c4)CO3)CC2)C1)C(C)C [Compound 85, 2-((4-(7-(((2S,5R)-5-((1-(Difluoromethyl)-1H-pyrazole)-4-sulfonamido)tetrahydro-2H-pyran-2-yl)methyl)-2,7-diazaspiro[3.5]nonan-2-yl)pyrimidin-5-yl)oxy)-5-fluoro-N,N-diisopropylbenzamide]",< 1,++ (“++” means ≥33% and <66%),+ (“+” means <33%),–,–,–,–,–
"CC(C)N(C(=O)c1cc(F)ccc1Oc1cncnc1N1CC2(CCN(C[C@@H]3CC[C@@H](NS(=O)(=O)c4cnn(C)c4)CO3)CC2)C1)C(C)C [Compound 86, 5-Fluoro-N,N-diisopropyl-2-((4-(7-(((2S,5R)-5-((1-methyl-1H-pyrazole)-4-sulfonamido)tetrahydro-2H-pyran-2-yl)methyl)-2,7-diazaspiro[3.5]nonan-2-yl)pyrimidin-5-yl)oxy)benzamide]",< 1,+++ (“+++” means ≥66%),+++ (“+++” means ≥66%),≥ 50,–,–,–,–
"CC(C)N(C(=O)c1cc(F)ccc1Oc1cncnc1N1CC2(CCN(C[C@@H]3CC[C@@H](NS(=O)(=O)c4ccn(C)n4)CO3)CC2)C1)C(C)C [Compound 87, 5-Fluoro-N,N-diisopropyl-2-((4-(7-(((2S,5R)-5-((1-methyl-1H-pyrazole)-3-sulfonamido)tetrahydro-2H-pyran-2-yl)methyl)-2,7-diazaspiro[3.5]nonan-2-yl)pyrimidin-5-yl)oxy)benzamide]",< 1,–,+++ (“+++” means ≥66%),–,–,–,–,–
"CC(C)N(C(=O)c1cc(F)ccc1Oc1cncnc1N1CC2(CCN(C[C@@H]3CC[C@@H](NS(=O)(=O)N4CCC4)CO3)CC2)C1)C(C)C [Compound 88, 2-((4-(7-(((2S,5R)-5-(Azetidine-1-sulfonamido)tetrahydro-2H-pyran-2-yl)methyl)-2,7-diazaspiro[3.5]nonan-2-yl)pyrimidin-5-yl)oxy)-5-fluoro-N,N-diisopropylbenzamide]",< 1,–,+++ (“+++” means ≥66%),–,–,–,–,–
"CC(C)N(C(=O)c1cc(F)ccc1Oc1cncnc1N1CC2(CCN(C[C@@H]3CC[C@@H](NS(=O)(=O)N(C)C(C)C)CO3)CC2)C1)C(C)C [Compound 89, 5-Fluoro-N,N-diisopropyl-2-((4-(7-(((2S,5R)-5-((N-isopropyl-N-methylsulfamoyl)amino)tetrahydro-2H-pyran-2-yl)methyl)-2,7-diazaspiro[3.5]nonan-2-yl)pyrimidin-5-yl)oxy)benzamide]",< 1,–,++ (“++” means ≥33% and <66%),–,–,–,–,–
"CC(C)N(C(=O)c1cc(F)ccc1Oc1cncnc1N1CC2(CCN(C[C@@H]3CC[C@@H](NS(N)(=O)=O)CO3)CC2)C1)C(C)C [Compound 90, 5-Fluoro-N,N-diisopropyl-2-((4-(7-(((2S,5R)-5-(sulfamoylamino)tetrahydro-2H-pyran-2-yl)methyl)-2,7-diazaspiro[3.5]nonan-2-yl)pyrimidin-5-yl)oxy)benzamide]",< 1,+++ (“+++” means ≥66%),+++ (“+++” means ≥66%),–,–,–,–,–
"Cc1nc(S(=O)(=O)N[C@@H]2CC[C@@H](CN3CCC4(CC3)CN(c3ncncc3Oc3ccc(F)cc3C(=O)N(C(C)C)C(C)C)C4)OC2)co1 [Compound 91, 5-Fluoro-N,N-diisopropyl-2-((4-(7-(((2S,5R)-5-((2-methyloxazole)-4-sulfonamido)tetrahydro-2H-pyran-2-yl)methyl)-2,7-diazaspiro[3.5]nonan-2-yl)pyrimidin-5-yl)oxy)benzamide]",< 1,–,++ (“++” means ≥33% and <66%),–,–,–,–,–
"CC(C)N(C(=O)c1cc(F)ccc1Oc1cncnc1N1CC2(CCN(C[C@@H]3CC[C@@H](NS(=O)(=O)N(C)C)CO3)CC2)C1)C1CC1 [Compound 93, N-Cyclopropyl-2-((4-(7-(((2S,5R)-5-((N,N-dimethylsulfamoyl)amino)tetrahydro-2H-pyran-2-yl)methyl)-2,7-diazaspiro[3.5]nonan-2-yl)pyrimidin-5-yl)oxy)-5-fluoro-N-isopropylbenzamide]",< 1,+++ (“+++” means ≥66%),++ (“++” means ≥33% and <66%),≥ 50,< 50,+++ (“+++” means ≥66%),+++ (“+++” means ≥66%),+ (“+” means <33%)
"CC(C)N(CC(F)F)C(=O)c1cc(F)ccc1Oc1cncnc1N1CC2(CCN(C[C@@H]3CC[C@@H](NS(=O)(=O)N4CCOCC4)CO3)CC2)C1 [Compound 94, N-(2,2-Difluoroethyl)-5-fluoro-N-isopropyl-2-((4-(7-(((2S,5R)-5-(morpholine-4-sulfonamido)tetrahydro-2H-pyran-2-yl)methyl)-2,7-diazaspiro[3.5]nonan-2-yl)pyrimidin-5-yl)oxy)benzamide]",< 1,+++ (“+++” means ≥66%),++ (“++” means ≥33% and <66%),–,< 50,–,–,–
"CC(C)N(CC(F)F)C(=O)c1cc(F)ccc1Oc1cncnc1N1CC2(CCN(C[C@@H]3CC[C@@H](NS(=O)(=O)N(C)C)CO3)CC2)C1 [Compound 95, N-(2,2-Difluoroethyl)-2-((4-(7-(((2S,5R)-5-((N,N-dimethylsulfamoyl)amino)tetrahydro-2H-pyran-2-yl)methyl)-2,7-diazaspiro[3.5]nonan-2-yl)pyrimidin-5-yl)oxy)-5-fluoro-N-isopropylbenzamide]",< 1,+++ (“+++” means ≥66%),++ (“++” means ≥33% and <66%),< 25,< 50,–,–,–
"CCN(CC)S(=O)(=O)N[C@@H]1CC[C@@H](CN2CCC3(CC2)CN(c2ncncc2Oc2ccc(F)cc2C(=O)N(CC(F)F)C(C)C)C3)OC1 [Compound 97, 2-((4-(7-(((2S,5R)-5-((N,N-Diethylsulfamoyl)amino)tetrahydro-2H-pyran-2-yl)methyl)-2,7-diazaspiro[3.5]nonan-2-yl)pyrimidin-5-yl)oxy)-N-(2,2-difluoroethyl)-5-fluoro-N-isopropylbenzamide]",< 1,++ (“++” means ≥33% and <66%),+ (“+” means <33%),–,< 50,–,–,–
"CC(C)N(CC(F)F)C(=O)c1cc(F)ccc1Oc1cncnc1N1CC2(CCN(C[C@@H]3CC[C@@H](NS(=O)(=O)N4CCC4)CO3)CC2)C1 [Compound 99, 2-((4-(7-(((2S,5R)-5-(Azetidine-1-sulfonamido)tetrahydro-2H-pyran-2-yl)methyl)-2,7-diazaspiro[3.5]nonan-2-yl)pyrimidin-5-yl)oxy)-N-(2,2-difluoroethyl)-5-fluoro-N-isopropylbenzamide]",< 1,+++ (“+++” means ≥66%),++ (“++” means ≥33% and <66%),–,–,–,–,–
"CC(C)N(CC(F)F)C(=O)c1cc(F)ccc1Oc1cncnc1N1CC2(CCN(C[C@@H]3CC[C@@H](NS(=O)(=O)c4cnn(C)c4)CO3)CC2)C1 [Compound 100, N-(2,2-Difluoroethyl)-5-fluoro-N-isopropyl-2-((4-(7-(((2S,5R)-5-((1-methyl-1H-pyrazole)-4-sulfonamido)tetrahydro-2H-pyran-2-yl)methyl)-2,7-diazaspiro[3.5]nonan-2-yl)pyrimidin-5-yl)oxy)benzamide]",< 1,+++ (“+++” means ≥66%),+++ (“+++” means ≥66%),≥ 50,–,–,–,–
"CC(C)N(CC(F)F)C(=O)c1cc(F)ccc1Oc1cncnc1N1CC2(CCN(C[C@@H]3CC[C@@H](NS(=O)(=O)N(C)C(C)C)CO3)CC2)C1 [Compound 101, N-(2,2-Difluoroethyl)-5-fluoro-N-isopropyl-2-((4-(7-(((2S,5R)-5-((N-isopropyl-N-methylsulfamoyl)amino)tetrahydro-2H-pyran-2-yl)methyl)-2,7-diazaspiro[3.5]nonan-2-yl)pyrimidin-5-yl)oxy)benzamide]",< 1,–,+ (“+” means <33%),–,–,–,–,–
"CNS(=O)(=O)N[C@@H]1CC[C@@H](CN2CCC3(CC2)CN(c2ncncc2Oc2ccc(F)cc2C(=O)N(CC(F)F)C(C)C)C3)OC1 [Compound 102, N-(2,2-Difluoroethyl)-5-fluoro-N-isopropyl-2-((4-(7-(((2S,5R)-5-((N-methylsulfamoyl)amino)tetrahydro-2H-pyran-2-yl)methyl)-2,7-diazaspiro[3.5]nonan-2-yl)pyrimidin-5-yl)oxy)benzamide]",< 1,–,+++ (“+++” means ≥66%),≥ 50,–,–,–,–
